Laboratory results published in patent US8003684B2, “Crystal form and pharmaceutical compositions of (+)-R-zileuton” (Cornerstone Therapeutics, Inc., priority 2006, dated 2011).

Assay: Moisture sorption/desorption analysis
Type: physicochemical
Text: The profiles show the change in weight of a sample containing Form I as the relative humidity (herein referred to as “RH”) of the environment is changed between 5% and 95% at a 10% RH interval. […] The vapor sorption/desorption profiles indicate that Form I is non-hygroscopic. Moisture sorption/desorption data were collected on a VTI SGA-100 Vapor Sorption Analyzer, calibrated using sodium chloride and polyvinylpyrrolidone as calibration standards. Sorption and desorption data were collected over a range of 5% to 95% relative humidity (RH) at 10% RH interval under a nitrogen purge. Samples were not dried prior to analysis. Equilibrium criteria used for analysis were less than 0.0100% weight change in 5 minutes, with a maximum equilibration time of 3 hours if the weight criterion was not met. Data were not corrected for the initial moisture content of the sample.

- weight change in adsorption profile (RH below 40%, FIG. 3): essentially no weight change
- hygroscopicity from vapor sorption/desorption profiles (RH between 5% and 95%): non-hygroscopic
- weight gain in adsorption profile (steady gain from RH 40% until RH reaches 95%, 10% RH interval, FIG. 3): approximately 2%
Compound: C[C@H](c1cc2ccccc2s1)N(O)C(N)=O [Form I, (+)-R-zileuton]
